One experiment deals with CDK9-Cyclin T1 (Homo sapiens, UniProt P50750). Put plainly: Dundee kinase screen re-test (standard format and 4 hour pre-incubation). It counts as biochemical. To be noted: CDK9/cyclin T1, 0.5µM. The procedure: Prior to determining its cellular activity, we carried out a screen to assess its selectivity against a panel of 131 protein kinases under conditions that would not distinguish between a reversible or irreversible mode of action. […] These 13 kinases and 29 additional kinases, selected for their known sensitivity to other inhibitors within the purine series, were then tested in a modified screening format in which the assay was repeated following a 4-hr pre-incubation (Table S3B). […] However, conformational flexibility around the active site may promote such an interaction with a residue from another part of the structure ([Martin et al., 2012]).
Chain of CDK9-Cyclin T1 (P50750 whole entry): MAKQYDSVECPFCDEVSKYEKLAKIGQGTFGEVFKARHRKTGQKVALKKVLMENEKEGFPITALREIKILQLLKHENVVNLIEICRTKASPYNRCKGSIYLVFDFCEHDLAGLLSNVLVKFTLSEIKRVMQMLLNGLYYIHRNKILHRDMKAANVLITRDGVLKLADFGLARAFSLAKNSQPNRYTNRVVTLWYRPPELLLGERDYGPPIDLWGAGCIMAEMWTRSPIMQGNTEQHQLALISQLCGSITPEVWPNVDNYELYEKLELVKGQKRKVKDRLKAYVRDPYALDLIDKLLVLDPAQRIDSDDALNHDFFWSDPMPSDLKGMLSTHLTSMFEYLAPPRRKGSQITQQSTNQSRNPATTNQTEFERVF
Chain of CDK9-Cyclin T1 (O60563 whole entry partner): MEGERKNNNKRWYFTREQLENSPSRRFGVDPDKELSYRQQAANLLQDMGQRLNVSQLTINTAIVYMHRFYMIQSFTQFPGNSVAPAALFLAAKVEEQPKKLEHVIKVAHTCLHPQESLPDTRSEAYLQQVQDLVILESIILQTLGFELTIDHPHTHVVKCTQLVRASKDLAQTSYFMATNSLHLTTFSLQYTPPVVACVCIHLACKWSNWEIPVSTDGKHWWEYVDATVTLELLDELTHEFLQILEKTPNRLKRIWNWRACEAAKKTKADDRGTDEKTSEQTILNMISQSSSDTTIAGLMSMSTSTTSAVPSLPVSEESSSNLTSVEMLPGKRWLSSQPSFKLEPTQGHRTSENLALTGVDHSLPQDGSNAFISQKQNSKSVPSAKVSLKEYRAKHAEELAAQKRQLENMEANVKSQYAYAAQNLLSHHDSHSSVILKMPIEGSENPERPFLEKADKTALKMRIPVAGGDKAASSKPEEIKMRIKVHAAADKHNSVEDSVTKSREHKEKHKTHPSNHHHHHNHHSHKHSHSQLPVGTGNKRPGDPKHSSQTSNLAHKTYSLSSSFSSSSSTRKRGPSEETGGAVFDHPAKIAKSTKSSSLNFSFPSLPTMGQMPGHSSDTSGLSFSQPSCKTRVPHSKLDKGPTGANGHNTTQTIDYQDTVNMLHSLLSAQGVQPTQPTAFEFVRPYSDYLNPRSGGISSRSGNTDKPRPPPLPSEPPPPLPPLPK
Table S3, Related to Figure 4. NCL-0006300 protein kinase selectivity. […]
Dundee protein kinase screen (Bain et al., 2007). […]
(B) Selected kinases were re-tested in the Dundee kinase screen against NU6300 at a single concentration of 0.5 µM both in the standard assay format and following a 4 hour pre-incubation in the presence of NU6300. Kinases which have very low activity after the 4 hour incubation so that results might not be wholly reliable are boxed in salmon. Kinases where the activity after a 4 hour pre-incubation is < 50% that in the standard assay format are highlighted in red.

The target of a further experiment is CSK (Homo sapiens, UniProt P41240). The experiment in a line: Dundee protein kinase screen. The note with it: read-out: %Remaining activity at 1µM NU6300. It counts as biochemical. A digest of the protocol: (§1)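 Selectivity panel of 131 protein kinases, inhibitor tested at a single concentration of 1 µM; values are % kinase activity remaining, mean of duplicates. Re-test of selected kinases used 0.5 µM in the standard format and again after a 4 hour pre-incubation with the inhibitor.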
Chain of CSK (P41240 whole entry): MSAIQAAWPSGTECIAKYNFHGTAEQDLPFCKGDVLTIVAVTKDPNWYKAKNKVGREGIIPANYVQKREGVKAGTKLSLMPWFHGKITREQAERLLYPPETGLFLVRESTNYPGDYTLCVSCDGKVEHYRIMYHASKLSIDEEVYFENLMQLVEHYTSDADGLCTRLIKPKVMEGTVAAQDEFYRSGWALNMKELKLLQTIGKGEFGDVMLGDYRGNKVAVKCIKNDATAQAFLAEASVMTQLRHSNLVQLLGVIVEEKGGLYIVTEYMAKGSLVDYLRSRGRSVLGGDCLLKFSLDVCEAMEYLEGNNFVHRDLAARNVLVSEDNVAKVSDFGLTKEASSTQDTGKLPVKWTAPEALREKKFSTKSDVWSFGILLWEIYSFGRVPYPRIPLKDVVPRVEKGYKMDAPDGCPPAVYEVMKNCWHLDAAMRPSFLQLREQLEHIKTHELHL

Another experiment concerns the target MAPKAP-K3 (Homo sapiens, UniProt Q16644). The experiment in a line: Dundee protein kinase screen. It counts as biochemical. To be noted: MAPKAP-K3, 1µM; read-out: %Remaining activity at 1µM NU6300. A digest of the protocol:
as §1

A further experiment relates to AMPK. Put plainly: Dundee protein kinase screen. It is filed as biochemical. The method in brief: as §1
The target in the next experiment is GCK (Homo sapiens, UniProt Q12851). The experiment in a line: Dundee protein kinase screen. It is filed as biochemical. To be noted: read-out: %Remaining activity at 1µM NU6300. The method in brief: as §1
Chain of GCK (Q12851 whole entry): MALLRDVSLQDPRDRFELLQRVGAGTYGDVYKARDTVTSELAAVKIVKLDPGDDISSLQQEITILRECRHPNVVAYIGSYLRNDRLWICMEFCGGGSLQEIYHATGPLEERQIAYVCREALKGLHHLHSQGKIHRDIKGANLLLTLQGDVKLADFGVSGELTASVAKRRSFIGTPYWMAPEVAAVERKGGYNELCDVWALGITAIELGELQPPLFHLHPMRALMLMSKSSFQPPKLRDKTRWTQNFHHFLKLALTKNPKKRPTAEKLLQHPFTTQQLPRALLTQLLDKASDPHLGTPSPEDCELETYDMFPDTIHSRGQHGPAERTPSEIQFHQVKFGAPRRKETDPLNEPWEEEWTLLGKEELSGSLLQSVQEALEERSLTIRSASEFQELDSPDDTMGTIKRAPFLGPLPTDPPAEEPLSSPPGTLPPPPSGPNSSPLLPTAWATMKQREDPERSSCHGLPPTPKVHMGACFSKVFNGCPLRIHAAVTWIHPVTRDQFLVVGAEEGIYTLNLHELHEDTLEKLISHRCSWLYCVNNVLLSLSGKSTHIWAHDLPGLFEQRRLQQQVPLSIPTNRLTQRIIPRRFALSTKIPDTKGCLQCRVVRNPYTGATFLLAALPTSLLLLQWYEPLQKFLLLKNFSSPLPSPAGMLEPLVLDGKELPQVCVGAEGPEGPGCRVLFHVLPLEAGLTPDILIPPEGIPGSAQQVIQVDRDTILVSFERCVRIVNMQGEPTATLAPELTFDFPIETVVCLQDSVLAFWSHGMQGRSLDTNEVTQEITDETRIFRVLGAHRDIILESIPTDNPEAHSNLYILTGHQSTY
Another experiment has as its target CDK2-Cyclin A (Homo sapiens, UniProt P24941). The experiment in a line: ESI-MS of covalent adduct. Also noted: made in house; host or cells: Escherichia coli (CDK2 co-expressed with S. cerevisiae CAK1). The note with it: wild-type CDK2/cyclin A, overnight incubation, vs control. On the procedure:
To determine whether NU6300 binds covalently to CDK2, recombinant CDK2/cyclin A was incubated overnight with NU6300 and then analyzed by electrospray ionization mass spectrometry (ESI-MS) (Figure S1A). […]
Protein expression and purification
Site-directed mutagenesis of CDK2 was performed using the QuikChange II kit (Stratagene) following the manufacturer’s instructions and verified by DNA sequencing.
Wild-type CDK2 phosphorylated at Thr160, untagged human cyclin A2 (residues 174-432), S. cerevisiae GST–CAK, GST–3C-protease and GST–pRb (residues 792–928) were expressed and purified as previously described (Brown et al., 1999a; Brown et al., 1999b; Welburn and Endicott, 2005). GST-CDK2 mutants were expressed and purified as described (Welburn and Endicott, 2005) and subsequently phosphorylated in vitro by GST-CAK essentially as described in (Morris et al., 2002) except that multiple CAK aliquots were required to enhance the levels of CDK2 Thr160 phosphorylation. […]
CDK2/cyclin A (200 µM) was incubated overnight with 1 mM inhibitor or DMSO, and then dialysed for 8 h with regular replacement of dialysis buffer into HEPES-buffered saline (50 mM HEPES, pH 7.5, 250 mM NaCl, 0.02% MTG). […] Reactions were stopped by addition of SDS-PAGE loading buffer and analyzed by SDS-PAGE. […]

Where two headings read alike, the source gives them in different places.

Chain of MAPKAP-K3 (Q16644 whole entry): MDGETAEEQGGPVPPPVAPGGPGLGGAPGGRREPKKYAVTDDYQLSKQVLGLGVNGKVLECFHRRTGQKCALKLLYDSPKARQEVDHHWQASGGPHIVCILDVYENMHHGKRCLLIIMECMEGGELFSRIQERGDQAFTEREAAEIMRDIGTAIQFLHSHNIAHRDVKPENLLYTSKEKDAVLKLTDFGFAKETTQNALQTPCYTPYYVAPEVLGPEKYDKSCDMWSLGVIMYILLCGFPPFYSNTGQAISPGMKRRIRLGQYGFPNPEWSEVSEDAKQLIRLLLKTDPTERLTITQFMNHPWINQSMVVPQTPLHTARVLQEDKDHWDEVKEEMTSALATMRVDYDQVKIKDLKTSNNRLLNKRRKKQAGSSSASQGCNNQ

By remaining activity is commonly meant the signal under treatment as a percentage of the control signal. Turning to `C=CS(=O)(=O)c1ccc(Nc2nc(OCC3CCCCC3)c3nc[nH]c3n2)cc1` [NU6300, 6-(cyclohexylmethoxy)-N-(4-(vinylsulfonyl)phenyl)-9H-purin-2-amine], the remaining activity at 0.5 µM on CDK9-Cyclin T1 (4hr RT preincubation, read-out: %Remaining activity at 0.5µM NU6300 - 4hr RT preincubation) was found to be 127%; on CDK9-Cyclin T1 (usual format, read-out: %Remaining activity at 0.5µM NU6300 - Usual assay format), 89%. Moreover, the remaining activity at 1 µM at CSK came out at 82%; at MAPKAP-K3, 88%; on GCK, 26%. Besides, the “%Remaining activity at 1µM NU6300” value in the experiment with AMPK came to 47%. The “increase in the mass of CDK2 (ESI-MS)” value on CDK2-Cyclin A amounted to 414 Da.

The values are drawn from article PMC4579270, “Identification and Characterization of an Irreversible Inhibitor of CDK2” (Chemistry & Biology, 2015).
